According to patent US5262521A (SRI International, priority 1991, dated 1993):
Where a SMILES comes first, the peptide text is derived from it. Where no end group is shown, it is not given here. [ ]: non-standard residue; d: D form. The star is where a group is joined. Boc = CC(C)(C)OC(=O)*

Key:
[1] = molecular target: atrial peptide-degrading enzyme (ADE); experiment: Inhibition of ADE activity (AcAPI production from 50 μM AcAPII, HPLC); type: biochemical, bovine; details: Table 10
Experimental: The concentration of enzyme and AcAPII were chosen so that approximately 80% of the AcAPII was degraded in the absence of inhibitor. The production of AcAPI was determined by integration of the AcI peak, and percent inhibition by the inhibitors was calculated.
(e.) Enzyme Inhibitor Testing: To further characterize ADE, the extent of inhibition by several known peptidase inhibitors was determined.

[2] = system: spontaneously hypertensive rats; experiment: Blood pressure and heart rate measurements in spontaneously hypertensive rats; type: in vivo, rat; parameters: Diastolic Blood Pressure, Mean Change From Control: unit not given here
Experimental: This experiment was carried out to evaluate the effects of an ADE inhibitor compound of the invention upon blood pressure (systolic and diastolic) and heart rate in spontaneously hypertensive rats ("SHR"). Twenty-eight male SHR, weighing 200-300 g at the initiation of study, having a systolic blood pressure of 160 mm Hg or higher, and obtained from Charles River Laboratories (Wilmington, Mass.), were tested over a nine-day period. The animal room environment and photoperiod were controlled (temperature approximately 22° C.±3° C., humidity of 40 to 70%, 12 h light, 12 h dark), as was diet.
The compounds to be administered (compound (V), above, and rat ANF ("rANF")) were dissolved in a 0.9% saline solution and administered intravenously. The test animals were divided into seven distinct groups for purposes of dose administration, as follows:
Group 1. Four SHR rats were infused with 100 pmole/minute of RANF (0.026 ml/minute) for 20 minutes.
Group 2. Four SHR rats were administered an i.v. bolus of 2 mg/kg of compound (V).
Group 3. Four SHR rats were administered an i.v. bolus of 10 mg/kg of compound (V).
Group 4. Four SHR rats were infused with 0.2 mg/kg/min of compound (V) (0.026 ml/minute) for 20 minutes.
Group 5. Four SHR rats were administered an i.v. bolus of 2 mg/kg of compound (V) and then infused with 100 pmole/minute of RANF (0.026 ml/minute for 20 minutes.
Group 6. Four SHR rats were administered an i.v. bolus of 10 mg/kg of compound (V) and then infused with 100 pmole/minute of RANF (0.026 ml/minute) for 20 minutes.
Group 7. Four SHR rats were infused with 0.2 mg/kg/min of compound (V) (0.026 ml/minute) for 20 minutes and then infused with 100 pmole/minute of RANF ([…]) for 20 minutes.
Blood pressure and heart rate determinations were made at 5 minute intervals for 20 minutes prior to dose and at 5 minute intervals for a minimum of 40 minutes following the initiation of test article administration or until a return to control values was realized. Blood pressure was measured continuously for one minute using a Statham P23Db pressure transducer (Statham Instruments, Hata Rey, Puerto Rico), and a Grass Model 7 Polygraph (Glass Instrument Company, Quincy, Mass.). Heart rate was measured using a Narco biotachometer BT-1200 (Narco Biosystems, Houston, Tex.).

[3] = system: atrial peptide-degrading enzyme (ADE); experiment: Degradation of peptide substrates by atrial peptide-degrading enzyme preparation (HPLC); type: biochemical, bovine; details: 50 μM substrate, 37° C.
Experimental: (c.) ADE Substrate and Inhibitor Studies: To study substrate selectivity of the atrial peptide-degrading enzyme, the pooled fractions from the Dynamax HPLC ion exchange, or Sephacryl S-200 columns, were incubated with 50 μM synthetic substrate and incubated at 37° C. for one or two hours. At the appropriate time, the samples were boiled, centrifuged and analyzed on the Vydac column as described above. The amount of substrate present after the incubation, as determined by integration of the HPLC peak, was compared with the initial substrate level.

[4] = system: atrial peptide-degrading enzyme (ADE); experiment: pooled fractions from the Dynamax HPLC ion exchange, or Sephacryl S-200 columns (ADE isolated from bovine kidney cortex); details: 37° C., up to two hours
[5] = (V) 20 min. infusion 0.2 mg/kg/min. i.v., interval 0 min
[6] = (V) 20 min. infusion 0.2 mg/kg/min. i.v., interval 5 min
[7] = (V) 20 min. infusion 0.2 mg/kg/min. i.v., interval 10 min
[8] = (V) 20 min. infusion 0.2 mg/kg/min. i.v., interval 15 min
[9] = (V) 20 min. infusion 0.2 mg/kg/min. i.v., interval 20 min
[10] = (V) 20 min. infusion 0.2 mg/kg/min. i.v., interval 25 min
[11] = (V) 20 min. infusion 0.2 mg/kg/min. i.v., interval 30 min
[12] = (V) 20 min. infusion 0.2 mg/kg/min. i.v., interval 35 min
[13] = (V) 20 min. infusion 0.2 mg/kg/min. i.v., interval 40 min
[14] = (V) bolus injection 2 mg/kg i.v., interval 0 min
[15] = (V) bolus injection 2 mg/kg i.v., interval 5 min
[16] = (V) bolus injection 2 mg/kg i.v., interval 10 min
[17] = (V) bolus injection 2 mg/kg i.v., interval 15 min
[18] = (V) bolus injection 2 mg/kg i.v., interval 20 min
[19] = (V) bolus injection 2 mg/kg i.v., interval 25 min
[20] = (V) bolus injection 2 mg/kg i.v., interval 30 min
[21] = (V) bolus injection 2 mg/kg i.v., interval 35 min
[22] = (V) bolus injection 2 mg/kg i.v., interval 40 min
[23] = (V) bolus injection 10 mg/kg i.v., interval 0 min
[24] = (V) bolus injection 10 mg/kg i.v., interval 5 min
[25] = (V) bolus injection 10 mg/kg i.v., interval 10 min
[26] = (V) bolus injection 10 mg/kg i.v., interval 15 min
[27] = (V) bolus injection 10 mg/kg i.v., interval 20 min
[28] = (V) bolus injection 10 mg/kg i.v., interval 25 min
[29] = (V) bolus injection 10 mg/kg i.v., interval 30 min
[30] = (V) bolus injection 10 mg/kg i.v., interval 35 min
[31] = (V) bolus injection 10 mg/kg i.v., interval 40 min
[32] = (V) bolus injections at 2 and 10 mg/kg
[33] = (V) infusion 0.2 mg/kg/minute for 20 minutes

Question: Which results are given for `CC(C)C[C@H](NC(=O)[C@@H](N)CO)C(=O)N[C@@H](CCCNC(=N)N)C(=O)N[C@@H](CCCNC(=N)N)C(=O)N[C@@H](CO)C(=O)N[C@@H](CO)C(=O)N[C@H](C)C(=O)NCC(=O)N[C@H](C)C(=O)N[C@@H](CC(N)=O)C(=O)N[C@@H](CS)C(=O)N[C@H](Cc1ccccc1)C(=O)N[C@@H](CCCNC(=N)N)C(=O)N[C@@H](Cc1ccc(O)cc1)C(N)=O` [(V), Ser-Leu-Arg-Arg-Ser-Ser-DAla-Gly-DAla-Asn-Cys-DPhe-Arg-Tyr-NH2] (H-SLRRSS[dA]G[dA]NC[dF]RY-NH2)?
Answer: IC50 [1]: 14.5 µM; % Inhibition At 0.1 mM ([1]; 0.1 mM): 81%; Diastolic Blood Pressure, Mean Change From Control [2, 5]: -4; Systolic Blood Pressure, Mean Change From Control [2, 5]: -1; Diastolic Blood Pressure, Mean Change From Control [2, 6]: -12; Systolic Blood Pressure, Mean Change From Control [2, 6]: -10; Diastolic Blood Pressure, Mean Change From Control [2, 7]: -15; Systolic Blood Pressure, Mean Change From Control [2, 7]: -18; Diastolic Blood Pressure, Mean Change From Control [2, 8]: -18; Systolic Blood Pressure, Mean Change From Control [2, 8]: -16; Diastolic Blood Pressure, Mean Change From Control [2, 9]: -20; Systolic Blood Pressure, Mean Change From Control [2, 9]: -26; Diastolic Blood Pressure, Mean Change From Control [2, 10]: -13; Systolic Blood Pressure, Mean Change From Control [2, 10]: -16; Diastolic Blood Pressure, Mean Change From Control [2, 11]: -14; Systolic Blood Pressure, Mean Change From Control [2, 11]: -9; Diastolic Blood Pressure, Mean Change From Control [2, 12]: 0; Systolic Blood Pressure, Mean Change From Control [2, 12]: 0; Diastolic Blood Pressure, Mean Change From Control [2, 13]: -2; Systolic Blood Pressure, Mean Change From Control [2, 13]: +5; Duration of the blood pressure lowering following administration ([2]; (V) bolus 2 mg/kg): 20 min; Duration of the blood pressure lowering following administration ([2]; (V) bolus 10 mg/kg): 35 min; Diastolic Blood Pressure, Mean Change From Control [2, 14]: -61; Systolic Blood Pressure, Mean Change From Control [2, 14]: -80; Diastolic Blood Pressure, Mean Change From Control [2, 15]: -40; Systolic Blood Pressure, Mean Change From Control [2, 15]: -50; Diastolic Blood Pressure, Mean Change From Control [2, 16]: -14; Systolic Blood Pressure, Mean Change From Control [2, 16]: -30; Diastolic Blood Pressure, Mean Change From Control [2, 17]: -8; Systolic Blood Pressure, Mean Change From Control [2, 17]: -14; Diastolic Blood Pressure, Mean Change From Control [2, 18]: -10; Systolic Blood Pressure, Mean Change From Control [2, 18]: -13; Diastolic Blood Pressure, Mean Change From Control [2, 19]: +1; Systolic Blood Pressure, Mean Change From Control [2, 19]: -4; Diastolic Blood Pressure, Mean Change From Control [2, 20]: +5; Systolic Blood Pressure, Mean Change From Control [2, 20]: +1; Diastolic Blood Pressure, Mean Change From Control [2, 21]: +7; Systolic Blood Pressure, Mean Change From Control [2, 21]: +2; Diastolic Blood Pressure, Mean Change From Control [2, 22]: 0; Systolic Blood Pressure, Mean Change From Control [2, 22]: +4; Diastolic Blood Pressure, Mean Change From Control [2, 23]: -66; Systolic Blood Pressure, Mean Change From Control [2, 23]: -76; Diastolic Blood Pressure, Mean Change From Control [2, 24]: -76; Systolic Blood Pressure, Mean Change From Control [2, 24]: -119; Diastolic Blood Pressure, Mean Change From Control [2, 25]: -61; Systolic Blood Pressure, Mean Change From Control [2, 25]: -100; Diastolic Blood Pressure, Mean Change From Control [2, 26]: -55; Systolic Blood Pressure, Mean Change From Control [2, 26]: -84; Diastolic Blood Pressure, Mean Change From Control [2, 27]: -35; Systolic Blood Pressure, Mean Change From Control [2, 27]: -55; Diastolic Blood Pressure, Mean Change From Control [2, 28]: -27; Systolic Blood Pressure, Mean Change From Control [2, 28]: -41; Diastolic Blood Pressure, Mean Change From Control [2, 29]: -17; Systolic Blood Pressure, Mean Change From Control [2, 29]: -29; Diastolic Blood Pressure, Mean Change From Control [2, 30]: -15; Systolic Blood Pressure, Mean Change From Control [2, 30]: -21; Diastolic Blood Pressure, Mean Change From Control [2, 31]: +10; Systolic Blood Pressure, Mean Change From Control [2, 31]: +9; Effect on systolic and diastolic blood pressure, in words [2, 32]: Dose-related decreases in systolic and diastolic blood pressure; Effect upon heart rate [2, 32]: No effects upon heart rate; Duration of blood pressure decrease following the conclusion of the dose [2, 33]: 10 min; Effect on systolic and diastolic blood pressure, in words [2, 33]: minimal decreases in systolic and diastolic blood pressure; Effect upon heart rate [2, 33]: No effects upon heart rate

Question: With `COC(=O)[C@H](Cc1ccccc1)NC(=O)[C@H](CO)NC(=O)[C@H](CC(N)=O)NC(=O)OC(C)(C)C` [Boc--Asn--Ser--Phe--OCH3] (Boc-Asn-Ser-Phe-OMe) as the molecule, how does the “% Degraded (small peptides)” value ([3]; one or two hours) read?
Answer: 0%

Question: For `CC(C)C[C@H](NC(=O)CNC(=O)[C@H](Cc1ccc(O)cc1)NC(=O)[C@H](CO)NC(=O)[C@H](Cc1c[nH]c2ccccc12)NC(=O)[C@H](Cc1c[nH]cn1)NC(=O)[C@@H]1CCC(=O)N1)C(=O)N[C@@H](CCCNC(=N)N)C(=O)N1CCC[C@H]1C(=O)NCC(N)=O` [LHRH, pGlu--His--Trp--Ser--Tyr--Gly--Leu--Arg--Pro--Gly-NH2], which “% Degraded 1 h” value [3] is on record?
Answer: 0%

Question: With “ANF: atrial natriuretic factor, carboxy terminal 28 amino acid fragment of α-ANF” as the molecule, how does the “% Degraded 1 h” value [3] read?
Answer: > 95%

Question: “API: rat atriopeptin I, atrial peptide prepared by solid phase synthesis (SSCFGGRIDRIGAQSGLGCNS; ends and bridges not checked; cysteine pairing not given here; UniProt P01161 127-147, looked up)” was tested. Which “% Degraded 1 h” value [3] did it give?
Answer: 0%

Question: What about the “% Degraded 2 h” value ([3]; 2 h) of the same molecule?
Answer: 0%

Question: Which not cleaved [4] does the source give for Asn--Ser--Phe--Arg--Tyr here?
Answer: 8% degraded

Question: For Boc-Asn-Ser-Phe-OMe, which not cleaved [4] is on record?
Answer: 0% degraded

Question: With DVNTDRPG as the molecule, how does the not cleaved [4] read?
Answer: 4% degraded at 1 h, 6% degraded at 2 h

Question: How did the not cleaved [4] turn out when Hip--Ser--Phe--Arg was run?
Answer: 0% degraded

Question: LYKKIIKKLLES was tested. Which not cleaved [4] did it give?
Answer: 0% degraded at 2 h

Question: How did the not cleaved [4] turn out when “pGlu--His--Trp--Ser--Tyr--Gly--Leu--Arg--Pro--Gly-NH2” was run?
Answer: 0% degraded at 1 h
